Drawing on patent publication US20100204224A1, “AZACYCLIC COMPOUNDS AS INHIBITORS OF SENSORY NEURONE SPECIFIC SODIUM CHANNELS” (priority 2005, published 2010), this text covers IC50 for 32 compounds.

The structures appear in SMILES notation.

In one experiment the target is T1, human Nav1.8 (hNav1.8) ion channel (Homo sapiens, UniProt Q9Y5Y9).
T1 construct: expressed in transfected cells
T1 sequence (Q9Y5Y9 whole entry): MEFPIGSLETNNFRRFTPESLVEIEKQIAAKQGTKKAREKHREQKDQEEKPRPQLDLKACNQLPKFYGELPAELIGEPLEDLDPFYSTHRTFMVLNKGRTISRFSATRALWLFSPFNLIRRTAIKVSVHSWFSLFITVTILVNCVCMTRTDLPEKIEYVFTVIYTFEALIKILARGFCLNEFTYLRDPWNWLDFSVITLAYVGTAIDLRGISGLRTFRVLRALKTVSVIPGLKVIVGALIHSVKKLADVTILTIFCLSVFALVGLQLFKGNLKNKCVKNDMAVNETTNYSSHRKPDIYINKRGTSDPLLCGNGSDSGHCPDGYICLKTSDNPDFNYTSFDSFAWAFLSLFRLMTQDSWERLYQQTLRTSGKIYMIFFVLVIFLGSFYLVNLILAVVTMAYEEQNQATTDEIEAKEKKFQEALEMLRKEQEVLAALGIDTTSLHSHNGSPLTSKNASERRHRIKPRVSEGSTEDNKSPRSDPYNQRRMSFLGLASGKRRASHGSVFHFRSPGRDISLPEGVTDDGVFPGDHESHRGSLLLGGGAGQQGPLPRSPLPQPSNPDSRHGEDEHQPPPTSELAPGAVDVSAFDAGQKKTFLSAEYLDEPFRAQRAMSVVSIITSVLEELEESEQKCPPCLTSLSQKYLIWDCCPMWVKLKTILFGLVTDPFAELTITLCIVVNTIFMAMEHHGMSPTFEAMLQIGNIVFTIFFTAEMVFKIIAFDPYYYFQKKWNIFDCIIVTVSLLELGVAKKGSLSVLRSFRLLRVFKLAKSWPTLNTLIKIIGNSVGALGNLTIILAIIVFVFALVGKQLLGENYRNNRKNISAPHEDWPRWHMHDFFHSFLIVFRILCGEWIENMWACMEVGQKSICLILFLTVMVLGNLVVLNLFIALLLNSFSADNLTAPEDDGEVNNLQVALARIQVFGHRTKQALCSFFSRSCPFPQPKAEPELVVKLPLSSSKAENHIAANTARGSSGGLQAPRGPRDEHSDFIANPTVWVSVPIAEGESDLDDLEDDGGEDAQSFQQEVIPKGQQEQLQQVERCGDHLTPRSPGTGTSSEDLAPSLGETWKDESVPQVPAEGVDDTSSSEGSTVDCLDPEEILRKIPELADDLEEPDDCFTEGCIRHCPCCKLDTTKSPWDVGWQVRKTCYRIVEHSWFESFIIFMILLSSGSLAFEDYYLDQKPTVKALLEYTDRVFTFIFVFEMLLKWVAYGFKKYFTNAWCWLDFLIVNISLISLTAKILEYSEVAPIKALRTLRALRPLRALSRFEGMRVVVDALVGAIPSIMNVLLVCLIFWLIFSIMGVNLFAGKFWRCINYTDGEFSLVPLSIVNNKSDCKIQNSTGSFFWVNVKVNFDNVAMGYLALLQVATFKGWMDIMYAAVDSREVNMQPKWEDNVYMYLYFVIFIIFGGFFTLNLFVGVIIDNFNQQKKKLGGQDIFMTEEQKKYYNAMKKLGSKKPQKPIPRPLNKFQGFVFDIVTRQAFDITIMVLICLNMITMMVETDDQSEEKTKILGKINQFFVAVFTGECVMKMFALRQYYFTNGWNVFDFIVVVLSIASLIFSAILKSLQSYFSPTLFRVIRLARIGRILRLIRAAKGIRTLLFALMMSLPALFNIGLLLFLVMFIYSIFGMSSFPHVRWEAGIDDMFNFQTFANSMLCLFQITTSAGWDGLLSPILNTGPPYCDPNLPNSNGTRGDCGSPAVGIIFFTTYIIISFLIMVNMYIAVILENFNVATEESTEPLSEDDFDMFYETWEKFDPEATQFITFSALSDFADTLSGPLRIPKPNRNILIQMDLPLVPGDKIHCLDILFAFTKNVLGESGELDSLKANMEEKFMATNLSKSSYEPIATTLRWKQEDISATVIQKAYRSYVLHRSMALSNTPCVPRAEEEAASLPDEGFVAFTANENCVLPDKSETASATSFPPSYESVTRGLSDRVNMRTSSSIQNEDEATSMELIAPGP
In words: Inhibition of human Nav1.8 stably expressed in SH-SY-5Y cells (membrane potential dye fluorescence assay). As to conditions: SH-SY-5Y hNav1.8 cells; FLIPR membrane potential dye; 10 μM pyrethroid, 250 nM TTX; test concentration range 100 μM-0.05 μM; read-out: hNav1.8 IC50. The format is cell-based.
In general, IC50 refers to the concentration at which inhibition is half-maximal. `CC(c1ccccc1Cl)N1CC2CC1CN2C(=O)c1ccc(Oc2ccc(F)cc2)cc1` (centres unmarked) [Example 151, {5-[1-(2-Chloro-phenyl)-ethyl]-2,5-diaza-bicyclo[2.2.1]hept-2-yl}-[4-(4-fluoro-phenoxy)-phenyl]-methanone]: the IC50 came out at 1.11 µM.

For `Cc1ccccc1C(C)N1CC2CC1CN2C(=O)Nc1ccc(Cc2ccccc2)cc1` (centres unmarked) [Example 35, 5-(1-o-Tolyl-ethyl)-2,5-diaza-bicyclo[2.2.1]heptane-2-carboxylic acid (4-benzyl-phenyl)-amide], the IC50 turned out to be 0.59 µM.

With `CC(c1c(F)cccc1F)N1CC2CC1CN2C(=O)Nc1ccc(Oc2ccccc2)cc1` (centres unmarked) [Example 9, 5-[1-(2,6-Difluoro-phenyl)-ethyl]-2,5-diaza-bicyclo[2.2.1]heptane-2-carboxylic acid (4-phenoxy-phenyl)-amide], the IC50 worked out at 0.87 µM.

Regarding `Cc1ccccc1C(C)N1CC2CC1CN2C(=O)Nc1ccc(OCc2ccccc2)cc1` (centres unmarked) [Example 33, 5-(1-o-Tolyl-ethyl)-2,5-diaza-bicyclo[2.2.1]heptane-2-carboxylic acid (4-benzyloxy-phenyl)-amide], the IC50 amounted to 0.49 µM.

Consider `CC(Cc1ccc(Cl)cc1Cl)N1CC2CC1CN2C(=O)Nc1ccc(C(F)(F)F)cc1` (centres unmarked) [Example 84, 5-[2-(2,4-Dichloro-phenyl)-1-methyl-ethyl]-2,5-diaza-bicyclo[2.2.1]heptane-2-carboxylic acid (4-trifluoromethyl-phenyl)-amide], for which the half-maximal inhibitory concentration (IC50) worked out at 1.06 µM.

Regarding `Cc1ccc(Oc2ccc(NC(=O)N3CC4CC3CN4C(C)c3ccccc3Cl)cc2)cc1` (centres unmarked) [Example 140, 5-[1-(2-Chloro-phenyl)-ethyl]-2,5-diaza-bicyclo[2.2.1]heptane-2-carboxylic acid (4-p-tolyloxy-phenyl)-amide], the IC50 worked out at 1.23 µM.

Turning to `O=C(Nc1ccc(Oc2cccc(F)c2)cc1)N1CC2CC1CN2C1Cc2ccccc2C1` (centres unmarked) [Example 114, 5-Indan-2-yl-2,5-diaza-bicyclo[2.2.1]heptane-2-carboxylic acid [4-(3-fluoro-phenoxy)-phenyl]-amide], the IC50 is 0.08 µM.

In the case of `O=C(Nc1ccc(Oc2ccc(F)cc2)cc1)N1CCC2(CCN(Cc3ccccc3)C2)C1` (centres unmarked) [Example 103, 7-Benzyl-2,7-diaza-spiro[4.4]nonane-2-carboxylic acid [4-(4-fluoro-phenoxy)-phenyl]-amide], the IC50 came out at 0.39 µM.

Take `CC(c1ccc(F)cc1Cl)N1CC2CC1CN2C(=O)Nc1ccc(Oc2ccc(F)cc2)cc1` (centres unmarked) [Example 132, 5-[1-(2-Chloro-4-fluoro-phenyl)-ethyl]-2,5-diaza-bicyclo[2.2.1]heptane-2-carboxylic acid [4-(4-fluoro-phenoxy)-phenyl]-amide]: the IC50 is 1.14 µM.

On to `O=C(Nc1ccc(C(F)(F)F)cc1)N1CC2CC1CN2C1CCc2cc(F)ccc21` (centres unmarked) [Example 94, 5-(5-Fluoro-indan-1-yl)-2,5-diaza-bicyclo[2.2.1]heptane-2-carboxylic acid (4-trifluoromethyl-phenyl)-amide], for which the IC50 came to 1.89 µM.

For the compound `CC(c1ccccc1Cl)N1CC2CC1CN2C(=O)c1ccc(Oc2cccc(F)c2)cc1` (centres unmarked) [Example 169, {5-[1-(2-Chloro-phenyl)-ethyl]-2,5-diaza-bicyclo[2.2.1]hept-2-yl}-[4-(3-fluoro-phenoxy)-phenyl]-methanone], the IC50 is 0.84 µM.

As to `CC(c1ccc(Cl)cc1Cl)N1CC2CC1CN2C(=O)Nc1ccc(Oc2ccc(F)cc2)cc1` (centres unmarked) [Example 118, 5-[1-(2,4-Dichloro-phenyl)-ethyl]-2,5-diaza-bicyclo[2.2.1]heptane-2-carboxylic acid [4-(4-fluoro-phenoxy)-phenyl]-amide], the IC50 is 17.6 µM.

Regarding `CC(c1ccc(Cl)cc1Cl)N1CC2CC1CN2C(=O)Nc1ccc(Oc2ccc(Cl)cc2)cc1` (centres unmarked) [Example 122, 5-[1-(2,4-Dichloro-phenyl)-ethyl]-2,5-diaza-bicyclo[2.2.1]heptane-2-carboxylic acid [4-(4-chloro-phenoxy)-phenyl]-amide], the 50% inhibitory concentration (IC50) came to 19.2 µM.

In the case of `Cc1ccccc1CC(C)N1CC2CC1CN2C(=O)NC(C)c1ccc(F)cc1` (centres unmarked) [Example 70, 5-(1-Methyl-2-o-tolyl-ethyl)-2,5-diaza-bicyclo[2.2.1]heptane-2-carboxylic acid [1-(4-fluoro-phenyl)-ethyl]-amide], the IC50 was found to be 5.08 µM.

Turning to `CC(c1ccccc1Cl)N1CC2CC1CN2C(=O)c1ccc(Oc2cccc(C#N)c2)cc1` (centres unmarked) [Example 173, 3-(4-{5-[1-(2-Chloro-phenyl)-ethyl]-2,5-diaza-bicyclo[2.2.1]heptane-2-carbonyl}-phenoxy)-benzonitrile], the IC50 amounted to 1.93 µM.

As for `Cc1ccccc1C(C)N1CC2CC1CN2C(=O)Nc1ccc(OC2CCOCC2)cc1` (centres unmarked) [Example 22, 5-(1-o-Tolyl-ethyl)-2,5-diaza-bicyclo[2.2.1]heptane-2-carboxylic acid [4-(tetrahydro-pyran-4-yloxy)-phenyl]-amide], the IC50 was 18.9 µM.

Regarding `CC(c1ccc(F)cc1)N1CC2CC1CN2C(=O)Nc1cccc(C(F)(F)F)c1` (centres unmarked) [Example 47, 5-[1-(4-Fluoro-phenyl)-ethyl]-2,5-diaza-bicyclo[2.2.1]heptane-2-carboxylic acid (3-trifluoromethyl-phenyl)-amide], the IC50 turned out to be 2.61 µM.

Turning to `CC(c1ccccc1Cl)N1CC2CC1CN2C(=O)c1ccc(Oc2cccc(F)c2)cc1` (centres unmarked) [Example 175, {5-[1-(2-Chloro-phenyl)-ethyl]-2,5-diaza-bicyclo[2.2.1]hept-2-yl}-[4-(3-fluoro-phenoxy)-phenyl]-methanone], the half-inhibitory concentration (IC50) was 0.64 µM.

Consider `O=C(c1ccc(C(F)(F)F)cc1)N1CC2CC1CN2C1CCc2ccccc2C1` (centres unmarked) [Example 137, [5-(1,2,3,4-Tetrahydro-naphthalen-2-yl)-2,5-diaza-bicyclo[2.2.1]hept-2-yl]-(4-trifluoromethyl-phenyl)-methanone], for which the IC50 was 23.2 µM.

On to `Cc1ccccc1CC(C)N1CC2CC1CN2C(=O)Nc1cccc(C(F)(F)F)c1` (centres unmarked) [Example 67, 5-(1-Methyl-2-o-tolyl-ethyl)-2,5-diaza-bicyclo[2.2.1]heptane-2-carboxylic acid (3-trifluoromethyl-phenyl)-amide], for which the IC50 came out at 1.22 µM.

As for `Cc1ccccc1C(C)N1CC2CC1CN2C(=O)NC(C)c1ccc(F)cc1` (centres unmarked) [Example 69, 5-(1-o-Tolyl-ethyl)-2,5-diaza-bicyclo[2.2.1]heptane-2-carboxylic acid [1-(4-fluoro-phenyl)-ethyl]-amide], the IC50 amounted to 17.1 µM.

As for `CC(c1c(F)cccc1F)N1CC2CC1CN2C(=O)Nc1ccc(C(F)(F)F)cc1` (centres unmarked) [Example 13, 5-[1-(2,6-Difluoro-phenyl)-ethyl]-2,5-diaza-bicyclo[2.2.1]heptane-2-carboxylic acid (4-trifluoromethyl-phenyl)-amide], the IC50 turned out to be 6.36 µM.

Consider `CC(c1ccc(F)cc1Cl)N1CC2CC1CN2C(=O)Nc1ccc(Oc2ccc(F)cc2)cc1` (centres unmarked) [Example 133, 5-[1-(2-Chloro-4-fluoro-phenyl)-ethyl]-2,5-diaza-bicyclo[2.2.1]heptane-2-carboxylic acid [4-(4-fluoro-phenoxy)-phenyl]-amide], for which the half-inhibitory concentration (IC50) is 1.19 µM.

Take `CC(c1ccc(F)cc1)N1CC2CC1CN2C(=O)Nc1ccc(C(F)(F)F)cc1` (centres unmarked) [Example 46, 5-[1-(4-Fluoro-phenyl)-ethyl]-2,5-diaza-bicyclo[2.2.1]heptane-2-carboxylic acid (4-trifluoromethyl-phenyl)-amide]: the IC50 turned out to be 1.31 µM.

For `O=C(Nc1ccc(Oc2ccc(F)cc2)cc1)N1CC2CC1CN2C1CCc2cc(F)ccc2C1` (centres unmarked) [Example 102, 5-(6-Fluoro-1,2,3,4-tetrahydro-naphthalen-2-yl)-2,5-diaza-bicyclo[2.2.1]heptane-2-carboxylic acid [4-(4-fluoro-phenoxy)-phenyl]-amide], the IC50 came to 0.71 µM.

In the case of `Cc1ccccc1C(C)N1CC2CC1CN2C(=O)Nc1ccc(C(=O)c2ccccc2)cc1` (centres unmarked) [Example 66, 5-(1-o-Tolyl-ethyl)-2,5-diaza-bicyclo[2.2.1]heptane-2-carboxylic acid (4-benzoyl-phenyl)-amide], the IC50 is 0.72 µM.

Regarding `O=C(Nc1ccc(C(F)(F)F)cc1)N1CC2CC1CN2C1CCc2cc(F)ccc2C1` (centres unmarked) [Example 100, 5-(6-Fluoro-1,2,3,4-tetrahydro-naphthalen-2-yl)-2,5-diaza-bicyclo[2.2.1]heptane-2-carboxylic acid (4-trifluoromethyl-phenyl)-amide], the IC50 is 0.64 µM.

Consider `CC(c1ccccc1Cl)N1CC2CC1CN2C(=O)Nc1ccc(Oc2ccccc2)cc1` (single isomer, unassigned) [Example 12, 5-[1-(2-Chloro-phenyl)-ethyl]-2,5-diaza-bicyclo[2.2.1]heptane-2-carboxylic acid (4-phenoxy-phenyl)-amide], for which the IC50 came to 0.36 µM.

In the case of `CC(c1ccc(C#N)cc1)N1CC2CC1CN2C(=O)Nc1ccc(Oc2ccc(F)cc2)cc1` (centres unmarked) [Example 90, 5-[1-(4-Cyano-phenyl)-ethyl]-2,5-diaza-bicyclo[2.2.1]heptane-2-carboxylic acid [4-(4-fluoro-phenoxy)-phenyl]-amide], the IC50 was 1.4 µM.

Staying with this experiment, now noted: hNav1.8 IC50, SH-SY-5Y hNav1.8 cells; FLIPR membrane potential dye; 10 μM pyrethroid, 250 nM TTX; test concentration range 100 μM-0.05 μM.
For `Cc1ccccc1C(C)N1CC2CC1CN2C(=O)Cc1ccc(Oc2cccc(F)c2)cc1` (centres unmarked) [Example 172, 2-[4-(3-Fluoro-phenoxy)-phenyl]-1-[5-(1-o-tolyl-ethyl)-2,5-diaza-bicyclo[2.2.1]hept-2-yl]-ethanone], the midpoint of inhibition, the IC50, lay at 0.71 µM.

The compound `CC(c1ccc(F)cc1Cl)N1CC2CC1CN2C(=O)Cc1ccc(Oc2ccc(F)cc2)cc1` (single isomer, unassigned) [Example 161, 1-{5-[1-(2-Chloro-4-fluoro-phenyl)-ethyl]-2,5-diaza-bicyclo[2.2.1]hept-2-yl}-2-[4-(4-fluoro-phenoxy)-phenyl]-ethanone] came in with an IC50 of 4.75 µM.

In turn, `Cc1ccccc1C(C)N1CC2CC1CN2C(=O)Nc1ccc(Oc2ccc(F)cc2)cc1` (single isomer, unassigned) [Example 29, 5-(1-o-Tolyl-ethyl)-2,5-diaza-bicyclo[2.2.1]heptane-2-carboxylic acid [4-(4-fluoro-phenoxy)-phenyl]-amide] showed an IC50 of 0.34 µM.
